Data published in patent US8877928B2 (Shandong University, priority 2010, dated 2014).

Experiments:
[1] = cited from earlier work
[2] = loss of midline facial features, uniocular, lack of anatomical features from forebrain; cited from earlier work
COLO 205 = test: cells; conditions: Homo sapiens, COLO 205, read-out: IC50 COLO205
Method: (§1) All cell lines were obtained from the American Type Culture Collection, and grown in the following media: COLO 205 and OVCAR-3 (RPMI 1640, containing 4.5 g/L glucose, 10 mM HEPES, 1 mM sodium pyruvate, 10% FBS); HT-29 (McCoy's 5a, containing 1.5 mM L-glutamine, 10% FBS); A549 (Ham's F12K, containing 10% FBS). All cell lines were maintained in an incubator at 37° C. containing 5% CO2. […] Briefly, the day before the start of the experiment the cells were incubated in a 96-well plate in a quantity of 10,000-20,000/well. […] At the end of the incubation period, an MTS dye was added, and then the colored product formazane as formed was measured by a Spectramax 340PC reader (Molecular Devices, CA) at 490 nm.
(§2) A interval was less than 0.100 μM; B interval was greater than 0.100 μM but less than 0.500 μM; C interval was greater than 0.500 μM but less than 2.000 μM; D interval was greater than 2.000 μM.

HT-29 = test: cells; conditions: Homo sapiens, HT-29, read-out: IC50 HT 29
Method: as §1, §2

A549 = test: cells; conditions: Homo sapiens, A549, read-out: IC50 A549
Method: as §1, §2

OVCAR-3 = test: cells; conditions: Homo sapiens, OVCAR-3, read-out: IC50 OVCAR3
Method: as §1, §2

[3] = Study of stability in plasma (disappearance of the conjugate by HPLC); conditions: 37° C.
Method: The mixture was quenched with a CH3CN/MeOH mixture (800 μL) in a ratio of 1:1, swirled for 1 minute, and then filtered through a 0.2 μm filter membrane. 30 μl of the resulting filtrate was analyzed by HPLC, to measure the disappearance of the conjugate.

## CC1=C2C[C@H]3[C@@H](CC=C4C[C@@H](O)CC[C@@]43C)[C@@H]2CC[C@]12O[C@@H]1C[C@H](C)CN[C@H]1[C@H]2C [cyclopamine]
[1]
  chemical stability at low pH: chemically instable
[2]
  teratogenicity: teratogenic
COLO 205
  IC50: 0.1 to 0.5 µM
HT-29
  IC50: 0.1 to 0.5 µM
A549
  IC50: > 2 µM
OVCAR-3
  IC50: 0.1 to 0.5 µM
[3]; 2 h
  disappearance % 2 h: 32%
[3]; 4 h
  disappearance % 4 h: 68%
[3]; 24 h
  disappearance % 24 h: 83%
